According to patent publication US9932522B2, “Electrochromic compound, electrochromic composition, display element, and dimming element” (Ricoh Company, Ltd., priority 2014, dated 2018):

Assay: Solubility evaluation of electrochromic compound
Details: dissolved to saturation, filtered through 0.5 μm PTFE filter, residue weighed; for Solubility, solvent TFP: 2,2,3,3-tetrafluoropropanol (TFP); for Solubility, solvent DMF: N,N-dimethylformamide (DMF)
Excerpt: The residue was filtered with a PTFE filter having the average pore diameter of 0.5 μm, and the solvent was dried under the reduced pressure. Then, the residue was weight to calculate an amount of the solute dissolved in each solvent.

Row | Structure (SMILES) | Solubility, solvent TFP | Solubility, solvent DMF
1 | COc1nc(OC)nc(-c2ccc(-c3cc[n+](CCCCCCCCP(=O)(O)O)cc3)cc2)n1.[Br-] [Compound 4b] | A (the solubility of 5% by mass or greater was attained relative to each solvent) | A (the solubility of 5% by mass or greater was attained relative to each solvent)
2 | O=P(O)(O)CCCCCCCC[n+]1ccc(-c2ccc(-c3ncccn3)cc2)cc1.[Br-] [Compound 6b] | A (the solubility of 5% by mass or greater was attained relative to each solvent) | A (the solubility of 5% by mass or greater was attained relative to each solvent)
3 | O=P(O)(O)CCCCCCCC[n+]1ccc(-c2ccc(-c3cncs3)cc2)cc1.[Br-] [Compound 2b] | A (the solubility of 5% by mass or greater was attained relative to each solvent) | A (the solubility of 5% by mass or greater was attained relative to each solvent)
4 | O=P(O)(O)CCCCCCCC[n+]1ccc(-c2ccc(-c3nc(-c4ccccc4)nc(-c4ccccc4)n3)cc2)cc1.[Br-] [Compound 5b] | A (the solubility of 5% by mass or greater was attained relative to each solvent) | A (the solubility of 5% by mass or greater was attained relative to each solvent)
5 | O=P(O)(O)CCCCCCCC[n+]1cccc(-c2ccc(-c3cccs3)cc2)c1 [Compound 12b] | A (the solubility of 5% by mass or greater was attained relative to each solvent) | A (the solubility of 5% by mass or greater was attained relative to each solvent)
6 | O=P(O)(O)CCCCCCCC[n+]1ccc(-c2ccc(-c3cccs3)cc2)cc1.[Br-] [Compound 1b] | A (the solubility of 5% by mass or greater was attained relative to each solvent) | A (the solubility of 5% by mass or greater was attained relative to each solvent)
7 | O=P(O)(O)CCCCCCCC[n+]1ccc(-c2ccc(-c3nccs3)cc2)cc1.[Br-] [Compound 3b] | A (the solubility of 5% by mass or greater was attained relative to each solvent) | A (the solubility of 5% by mass or greater was attained relative to each solvent)
